Assays:
Assay type in all cases: biochemical
VEGFR2 = target: T1, VEGFR2 (Homo sapiens, UniProt P35968); assay: Assay I: VEGFR2 kinase inhibition (HTRF KinEASE-TK); conditions: ATP 5 μM, substrate TK 1 μM
T1 construct: purchased Carna 08-191
Experimental: (§1) Assay I: Determination of Inhibitory Activity Against FGFR Mutants
(§2) 1. Reagents and Equipment
(§3) 2.1 Preparation of 1× Kinase Reaction Buffer:
(§4) 1× Kinase reaction buffer was formulated with 1× volume of 5× kinase reaction buffer and 4× volume of water; 5 mM MgCl2; and 1 mM DTT.
(§5) 2.3 Screening of Compounds:
(§6) 1. Diluting a compound 4-fold in a dilution plate with DMSO, with a starting compound concentration of 2 mM.
(§7) 2. Diluting the compound 40-fold into 1× kinase reaction buffer and shaking it on a shaker for 20 minutes.
3. Formulating 2×FGFR1 V561M/FGFR2 V564F/FGFR3 K650E/VEGFR2 with 1× of enzyme reaction buffer.
4. Adding 2 μl FGFR1 V561M/FGFR2 V564F/FGFR3 K650E/VEGFR2 kinase (formulated in step 3) to each well of the reaction plate.
(§8) 5. Adding 1 μl of the compound diluted in buffer to each well, sealing the plate with a sealing membrane and centrifuging the plate at 1000 g for 30 seconds and leaving it at room temperature for 10 minutes.
(§9) 6. Formulating 2.5×TK-substrate-biotin and ATP mixture with 1× enzyme reaction buffer and adding 2 μl of K-substrate-biotin/ATP mixture to the reaction plate.
(§10) 7. Sealing the plate with a sealing membrane and centrifuging the plate at 1000 g for 30 seconds and allowing it to react at room temperature for 50 minutes.
(§11) 8. Formulating 4× Sa-XL 665 (250 nM) with HTRF assay buffer.
(§12) 9. Adding 5 μl Sa-XL 665 and 5 μl TK-Antibody-Cryptate to each well, centrifuging it at 1000 g for 30 seconds, and allowing it to react for 1 hour at room temperature.
(§13) 10. Reading fluorescence signals at 615 nm (Cryptate) and 665 nm (XL665) with Biotek.
(§14) 3.1 Calculation of the ratio for each well: the ratio was calculated as 665/615 nm.
(§15) 3.3 Calculation of IC50 and plotting of inhibition curves for the compounds.
(§16) The IC50 (half inhibition concentration) of a compound was obtained using the following non-linear fitting equation, wherein data analysis was performed using Graphpad 6.0 software.
(§17) Y=Bottom+(Top−Bottom)/(1+10^((Log IC50−X)*Hill Slope)) • X: log value of compound concentration; and Y: inhibition rate (% inh)
(§18) 3.4 Validation of Results
(§19) Data were exported from Envision and analyzed manually. The ratios were converted to inhibition rates and IC50 was calculated by Prism GraphPad 6.0 from the inhibition rates. IC50 was calculated again by the ratios to verify accuracy of the results.
Positive control IC50 was within 3 times of the average value

FGFR1 V561M = target: T2, FGFR1 V561M (Homo sapiens, UniProt P11362, V561M); assay: Assay I: inhibitory activity against FGFR mutants (HTRF KinEASE-TK); conditions: ATP 5 μM, substrate TK 1 μM
T2 construct: purchased Signalchem F04-13G
Experimental: as §1, §2, §3, §4, §5, §6, §7, §8, §9, §10, §11, §12, §13, §14, §15, §16, §17, §18, §19

FGFR3 V555M = target: T3, FGFR3 V555M (Homo sapiens, UniProt P22607, V555M); assay: as above; conditions: ATP 20 μM, substrate TK 1 μM
T3 construct: purchased Signalchem F06-12GG
Experimental: as §1, §2, §3, §4, §5, §6, §7, §8, §9, §10, §11, §12, §13, §14, §15, §16, §17, §18, §19

FGFR2 V564F = target: T4, FGFR2 V564F (Homo sapiens, UniProt P21802, V564F); assay: as above; conditions: ATP 10 μM, substrate TK 1 μM
T4 construct: purchased Signalchem F05-12FG
Experimental: as §1, §2, §3, §4, §5, §6, §7, §8, §9, §10, §11, §12, §13, §14, §15, §16, §17, §18, §19

T4 sequence (P21802 22-821 V564F): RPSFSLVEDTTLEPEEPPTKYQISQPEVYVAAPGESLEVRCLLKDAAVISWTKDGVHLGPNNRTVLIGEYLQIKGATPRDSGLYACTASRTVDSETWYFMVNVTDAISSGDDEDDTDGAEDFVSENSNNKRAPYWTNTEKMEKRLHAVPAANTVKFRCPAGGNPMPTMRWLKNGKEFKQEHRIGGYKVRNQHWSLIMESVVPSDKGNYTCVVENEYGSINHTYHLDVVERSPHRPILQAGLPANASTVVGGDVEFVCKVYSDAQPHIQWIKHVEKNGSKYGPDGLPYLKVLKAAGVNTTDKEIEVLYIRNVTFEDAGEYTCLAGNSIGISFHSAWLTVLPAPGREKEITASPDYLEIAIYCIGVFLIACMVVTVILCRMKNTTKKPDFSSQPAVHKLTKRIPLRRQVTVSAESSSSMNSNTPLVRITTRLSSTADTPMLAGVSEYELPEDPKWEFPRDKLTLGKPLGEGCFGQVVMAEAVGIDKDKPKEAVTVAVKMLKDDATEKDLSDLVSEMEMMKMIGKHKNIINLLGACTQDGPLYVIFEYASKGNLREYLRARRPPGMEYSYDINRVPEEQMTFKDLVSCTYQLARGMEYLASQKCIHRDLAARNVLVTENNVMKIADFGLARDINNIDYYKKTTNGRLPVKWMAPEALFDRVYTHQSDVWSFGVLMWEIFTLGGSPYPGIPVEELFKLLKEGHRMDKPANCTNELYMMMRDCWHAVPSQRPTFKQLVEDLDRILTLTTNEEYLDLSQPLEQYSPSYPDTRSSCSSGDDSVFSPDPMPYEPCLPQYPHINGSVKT
T2 sequence (P11362 22-822 V561M): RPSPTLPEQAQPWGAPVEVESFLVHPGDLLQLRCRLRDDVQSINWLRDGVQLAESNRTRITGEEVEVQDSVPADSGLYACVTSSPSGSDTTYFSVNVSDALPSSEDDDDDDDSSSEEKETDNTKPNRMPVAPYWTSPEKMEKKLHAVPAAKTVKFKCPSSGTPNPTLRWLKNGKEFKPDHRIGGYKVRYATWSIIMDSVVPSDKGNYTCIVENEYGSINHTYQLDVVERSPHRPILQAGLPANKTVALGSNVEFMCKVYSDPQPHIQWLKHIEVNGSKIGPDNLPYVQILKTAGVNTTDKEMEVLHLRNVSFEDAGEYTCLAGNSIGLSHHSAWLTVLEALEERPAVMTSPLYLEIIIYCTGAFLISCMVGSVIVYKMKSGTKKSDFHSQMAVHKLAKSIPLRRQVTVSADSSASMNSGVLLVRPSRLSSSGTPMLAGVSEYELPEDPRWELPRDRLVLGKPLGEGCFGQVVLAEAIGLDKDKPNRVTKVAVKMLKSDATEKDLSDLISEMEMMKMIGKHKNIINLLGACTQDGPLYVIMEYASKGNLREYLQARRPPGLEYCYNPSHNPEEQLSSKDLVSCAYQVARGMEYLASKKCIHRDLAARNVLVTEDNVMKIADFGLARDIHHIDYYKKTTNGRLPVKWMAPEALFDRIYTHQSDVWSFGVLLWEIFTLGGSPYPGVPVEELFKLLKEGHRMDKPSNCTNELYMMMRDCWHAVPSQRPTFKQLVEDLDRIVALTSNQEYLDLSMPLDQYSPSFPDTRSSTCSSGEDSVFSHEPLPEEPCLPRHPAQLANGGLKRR
T3 sequence (P22607 397-806 V555M limits assumed): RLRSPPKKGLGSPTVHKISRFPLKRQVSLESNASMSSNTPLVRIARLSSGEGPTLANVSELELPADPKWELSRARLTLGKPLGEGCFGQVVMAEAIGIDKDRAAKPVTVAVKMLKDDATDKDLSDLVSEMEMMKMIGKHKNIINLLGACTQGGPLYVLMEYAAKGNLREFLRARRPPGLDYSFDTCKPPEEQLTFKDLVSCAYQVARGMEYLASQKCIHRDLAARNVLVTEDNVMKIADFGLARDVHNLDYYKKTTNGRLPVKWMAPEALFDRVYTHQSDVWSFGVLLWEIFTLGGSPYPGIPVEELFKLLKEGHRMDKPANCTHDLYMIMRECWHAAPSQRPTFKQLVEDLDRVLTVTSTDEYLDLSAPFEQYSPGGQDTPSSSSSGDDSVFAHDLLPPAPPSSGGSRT
T1 sequence (P35968 20-1356): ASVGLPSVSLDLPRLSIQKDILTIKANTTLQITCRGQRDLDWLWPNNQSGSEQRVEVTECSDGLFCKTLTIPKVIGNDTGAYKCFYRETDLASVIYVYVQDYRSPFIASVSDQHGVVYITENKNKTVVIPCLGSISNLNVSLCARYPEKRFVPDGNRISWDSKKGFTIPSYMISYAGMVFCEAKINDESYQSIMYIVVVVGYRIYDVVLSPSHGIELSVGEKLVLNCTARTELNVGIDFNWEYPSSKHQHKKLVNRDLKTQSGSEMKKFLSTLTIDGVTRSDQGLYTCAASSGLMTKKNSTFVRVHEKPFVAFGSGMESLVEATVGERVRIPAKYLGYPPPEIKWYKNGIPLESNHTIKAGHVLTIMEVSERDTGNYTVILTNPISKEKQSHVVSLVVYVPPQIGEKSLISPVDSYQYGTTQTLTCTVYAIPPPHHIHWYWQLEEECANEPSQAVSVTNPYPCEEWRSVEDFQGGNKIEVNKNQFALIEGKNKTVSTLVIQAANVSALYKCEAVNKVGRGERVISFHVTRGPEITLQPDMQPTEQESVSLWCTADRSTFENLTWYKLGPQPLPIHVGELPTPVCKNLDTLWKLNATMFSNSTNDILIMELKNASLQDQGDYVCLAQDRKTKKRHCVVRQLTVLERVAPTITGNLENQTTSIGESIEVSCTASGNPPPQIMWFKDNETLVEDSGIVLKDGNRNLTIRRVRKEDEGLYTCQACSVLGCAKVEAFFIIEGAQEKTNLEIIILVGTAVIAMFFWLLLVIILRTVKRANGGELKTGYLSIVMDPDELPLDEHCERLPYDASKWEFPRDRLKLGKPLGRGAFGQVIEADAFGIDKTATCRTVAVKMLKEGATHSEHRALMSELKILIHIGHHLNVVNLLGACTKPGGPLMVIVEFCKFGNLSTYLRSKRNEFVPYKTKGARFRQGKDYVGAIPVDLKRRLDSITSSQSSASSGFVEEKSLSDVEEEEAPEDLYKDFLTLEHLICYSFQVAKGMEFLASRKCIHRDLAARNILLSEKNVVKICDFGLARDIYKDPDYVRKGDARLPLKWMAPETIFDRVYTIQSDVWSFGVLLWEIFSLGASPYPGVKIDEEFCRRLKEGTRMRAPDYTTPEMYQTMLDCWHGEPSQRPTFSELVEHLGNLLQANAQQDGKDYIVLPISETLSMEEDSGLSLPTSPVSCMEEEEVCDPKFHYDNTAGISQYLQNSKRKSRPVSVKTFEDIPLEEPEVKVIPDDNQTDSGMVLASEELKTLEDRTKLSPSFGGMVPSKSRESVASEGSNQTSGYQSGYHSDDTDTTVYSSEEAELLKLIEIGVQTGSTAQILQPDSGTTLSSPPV

| Compound | IC50 (VEGFR2) [nM] | IC50 (FGFR1 V561M) [nM] | IC50 (FGFR3 V555M) [nM] | IC50 (FGFR2 V564F) [nM] |
| --- | --- | --- | --- | --- |
| CC(Oc1ccc2[nH]nc(-c3nc4c([nH]3)CN(C3CCC(O)CC3)C4)c2c1)c1c(Cl)cncc1Cl (stereo not shown) [Compound 22, 4-(2-(5-(1-(3,5-dichloropyridin-4-yl)ethoxy)-1H-indazol-3-yl)-4,6-dihydropyrrolo[3,4-d]imidazol-5(1H)-yl)cyclohexan-1-ol] | 11.7 | 1.8 | 0.91 | 0.76 |
| CC(Oc1ccc2[nH]nc(-c3nc4c([nH]3)CN(C(=O)OCCC#N)C4)c2c1)c1c(Cl)cncc1Cl (stereo not shown) [Compound 24, 2-cyanoethyl 2-(5-(1-(3,5-dichloropyridin-4-yl)ethoxy)-1H-indazol-3-yl)-4,6-dihydropyrrolo[3,4-d]imidazole-5(1H)-carboxylate] | 27.5 | 2.4 | 4.6 | 1.4 |
| CC(Oc1ccc2[nH]nc(-c3nc4c([nH]3)CN(C(=O)C3CC(O)C3)C4)c2c1)c1c(Cl)cncc1Cl (stereo not shown) [Compound 26, (2-(5-(1-(3,5-dichloropyridin-4-yl)ethoxy)-1H-indazol-3-yl)-4,6-dihydropyrrolo[3,4-d]imidazol-5(1H)-yl)(3-hydroxycyclobutyl)ketone] | 7.1 | 0.38 | 0.13 | 0.17 |
| CCS(=O)(=O)N1Cc2nc(-c3n[nH]c4ccc(OC(C)c5c(Cl)cncc5Cl)cc34)[nH]c2C1 (stereo not shown) [Compound 28, 5-(1-(3,5-dichloropyridin-4-yl)ethoxy)-3-(5-(ethylsulfonyl)-1,4,5,6-tetrahydropyrrolo[3,4-d]imidazol-2-yl)-1H-indazole] | 30 | 1.6 | 0.52 | 0.3 |
| CC(Oc1ccc2[nH]nc(-c3nc4c([nH]3)CN(S(=O)(=O)C3CC3)C4)c2c1)c1c(Cl)cncc1Cl (stereo not shown) [Compound 29, 3-(5-(Cyclopropylsulfonyl)-1,4,5,6-tetrahydropyrrolo[3,4-d]imidazol-2-yl)-5-(1-(3,5-dichloropyridin-4-yl)ethoxy)-1H-indazole] | 64 | 1.2 | 0.7 | 1.6 |
| CC(Oc1ccc2[nH]nc(-c3nc4c([nH]3)CN(S(=O)(=O)C(C)C)C4)c2c1)c1c(Cl)cncc1Cl (stereo not shown) [Compound 30, 5-(1-(3,5-dichloropyridin-4-yl)ethoxy)-3-(5-(isopropylsulfonyl)-1,4,5,6-tetrahydropyrrolo[3,4-d]imidazol-2-yl)-1H-indazole] | 96 | 0.4 | 0.6 | 0.3 |
| CC(Oc1ccc2[nH]nc(-c3nc4c([nH]3)CN(C(=O)CN3CCC(C#N)C3)C4)c2c1)c1c(Cl)cncc1Cl (stereo not shown) [Compound 32, 1-(2-(2-(5-(1-(3,5-dichloropyridin-4-yl)ethoxy)-1H-indazol-3-yl)-4,6-dihydropyrrolo[3,4-d]imidazol-5(1H)-yl)-2-oxoethyl)pyrrolidine-3-carbonitrile] | 3.7 | 1.1 | 0.19 | 1.2 |
| C[C@@H](Oc1ccc2[nH]nc(-c3nc4c([nH]3)CN(C(=O)CN3CC[C@H](O)C3)C4)c2c1)c1c(Cl)cncc1Cl [Compound 42, 1-(2-(5-((R)-1-(3,5-Dichloropyridin-4-yl)ethoxy)-1H-indazol-3-yl)-4,6-dihydropyrrolo[3,4-d]imidazol-5(1H)-yl)-2-((S)-3-hydroxypyrrolidin-1-yl)ethan-1-one] | 10.3 | 1 | 0.33 | 0.18 |

More lines, now with the values ahead:

| IC50 (VEGFR2) [nM] | IC50 (FGFR1 V561M) [nM] | IC50 (FGFR3 V555M) [nM] | IC50 (FGFR2 V564F) [nM] | Compound |
| --- | --- | --- | --- | --- |
| 85 | 1.2 | 1.3 | 0.48 | CCOC(=O)N1Cc2nc(-c3n[nH]c4ccc(OC(C)c5c(Cl)cncc5Cl)cc34)[nH]c2C1 (stereo not shown) [Compound 23, Ethyl 2-(5-(1-(3,5-dichloropyridin-4-yl)ethoxy)-1H-indazol-3-yl)-4,6-dihydropyrrolo[3,4-d]imidazole-5(1H)-carboxylate] |
| 10 | 0.98 | 0.26 | 0.41 | CC(Oc1ccc2[nH]nc(-c3nc4c([nH]3)CN(C(=O)C3CC3)C4)c2c1)c1c(Cl)cncc1Cl (stereo not shown) [Compound 25, Cyclopropyl (2-(5-(1-(3,5-dichloropyridin-4-yl)ethoxy)-1H-indazol-3-yl)-4,6-dihydropyrrolo[3,4-d]imidazol-5(1H)-yl)ketone] |
| 37.5 | 0.94 | 0.4 | 0.16 | CC(Oc1ccc2[nH]nc(-c3nc4c([nH]3)CN(C(=O)CC#N)C4)c2c1)c1c(Cl)cncc1Cl (stereo not shown) [Compound 27, 3-(2-(5-(1-(3,5-dichloropyridin-4-yl)ethoxy)-1H-indazol-3-yl)-4,6-dihydropyrrolo[3,4-d]imidazol-5(1H)-yl)-3-oxopropionitrile] |
| 14 | 0.67 | 0.1 | 0.15 | CC(Oc1ccc2[nH]nc(-c3nc4c([nH]3)CN(C(=O)CN3CCC(O)C3)C4)c2c1)c1c(Cl)cncc1Cl (stereo not shown) [Compound 31, 1-(2-(5-(1-(3,5-dichloropyridin-4-yl)ethoxy)-1H-indazol-3-yl)-4,6-dihydropyrrolo[3,4-d]imidazol-5(1H)-yl)-2-(3-hydroxypyrrolidin-1-yl)ethan-1-one] |
| 6.3 | 1.3 | 0.46 | 0.45 | CNC(=O)N1Cc2nc(-c3n[nH]c4ccc(O[C@H](C)c5c(Cl)cncc5Cl)cc34)[nH]c2C1 [Compound 33, (R)-2-(5-(1-(3,5-dichloropyridin-4-yl)ethoxy)-1H-indazol-3-yl)-N-methyl-4,6-dihydropyrrolo[3,4-d]imidazole-5(1H)-carboxamide] |
| 1.7 | 0.46 | 0.27 | 0.29 | C[C@@H](Oc1ccc2[nH]nc(-c3nc4c([nH]3)CN(C(=O)N(C)C)C4)c2c1)c1c(Cl)cncc1Cl [Compound 34, (R)-2-(5-(1-(3,5-dichloropyridin-4-yl)ethoxy)-1H-indazol-3-yl)-N,N-dimethyl-4,6-dihydropyrrolo[3,4-d]imidazole-5(1H)-carboxamide] |
| 27.5 | 1.9 | 0.31 | 0.61 | C[C@@H](Oc1ccc2[nH]nc(-c3nc4c([nH]3)CN(C3CCN(C)C3)C4)c2c1)c1c(Cl)cncc1Cl (stereo partly drawn) [Compound 36, 5-((R)-1-(3,5-Dichloropyridin-4-yl)ethoxy)-3-(5-(1-methylpyrrolidin-3-yl)-1,4,5,6-tetrahydropyrrolo[3,4-d]imidazol-2-yl)-1H-indazole] |
| 49.3 | 3.9 | 0.58 | 0.68 | CC(C1CCN(C)CC1)N1Cc2nc(-c3n[nH]c4ccc(O[C@H](C)c5c(Cl)cncc5Cl)cc34)[nH]c2C1 (stereo partly drawn) [Compound 37, 5-((R)-1-(3,5-Dichloropyridin-4-yl)ethoxy)-3-(5-(1-(1-methylpiperidin-4-yl)ethyl)-1,4,5,6-tetrahydropyrrolo[3,4-d]imidazol-2-yl)-1H-indazole] |
| 15.7 | 0.75 | 0.15 | 0.19 | C[C@@H](Oc1ccc2[nH]nc(-c3nc4c([nH]3)CN(C3CCCN(C)C3)C4)c2c1)c1c(Cl)cncc1Cl (stereo partly drawn) [Compound 38, 5-((R)-1-(3,5-Dichloropyridin-4-yl)ethoxy)-3-(5-(1-methylpiperidin-3-yl)-1,4,5,6-tetrahydropyrrolo[3,4-d]imidazol-2-yl)-1H-indazole] |
| 4.7 | 0.39 | 0.26 | 0.32 | C[C@@H](Oc1ccc2[nH]nc(-c3nc4c([nH]3)CN(C(=O)CN3CCCC3)C4)c2c1)c1c(Cl)cncc1Cl [Compound 40, (R)-1-(2-(5-(1-(3,5-dichloropyridin-4-yl)ethoxy)-1H-indazol-3-yl)-4,6-dihydropyrrolo[3,4-d]imidazol-5(1H)-yl)-2-(pyrrolidin-1-yl)ethan-1-one] |
| 2.4 | 0.26 | 0.1 | 0.23 | C[C@@H](Oc1ccc2[nH]nc(-c3nc4c([nH]3)CN(C(=O)CN3CC[C@@H](O)C3)C4)c2c1)c1c(Cl)cncc1Cl [Compound 41, 1-(2-(5-((R)-1-(3,5-Dichloropyridin-4-yl)ethoxy)-1H-indazol-3-yl)-4,6-dihydropyrrolo[3,4-d]imidazol-5(1H)-yl)-2-((R)-3-hydroxypyrrolidin-1-yl)ethan-1-one] |

From patent publication US20230374025A1, “FGFR INHIBITOR COMPOUND AND USE THEREOF” (SHENZHEN KANGSU PHARMACEUTICAL TECHNOLOGY CO., LTD., priority 2021, published 2023)
